Experimental data taken from patent US6906035B2, “Antimicrobial cationic peptides” (priority 1995, dated 2005).
Where two headings read alike, the source gives them in different places. Ends that are not written are not given here.

Experiments:
[1] = tested on: LPS-induced TNF in RAW 264.7 macrophage cells; assay: Inhibition of LPS-induced TNF in RAW 264.7 macrophages (L929 cytotoxic assay); type: cell-based, mouse; conditions: for depression of TNF induction by aspirated medium containing peptide: fresh RAW cells
Experimental: RAW 264.7 macrophage cells were grown by seeding 10^6 cells into a 162 cm^2 cell culture flask and incubated at 37° C., 5% CO2 for 1 week. RAW cell media [(Dulbecco's Modified Eagle Medium with Hepes buffer 450 ml; 2.4 mML-glutamine 3 ml (400 mM); Pen/Strep 3 ml (10^4 U/ml of Pen, 1 mg/ml strep); and 10% heat inactivated fetal bovine serum (FBS) 50 ml)] was then completely removed from flasks. 10 mls of cell dissociation solution (Sigma) was added to each flask and inc; bated at 37° C. for 10 minutes. Cells were removed from flasks, diluted in RAW cell media and centrifuged for 6 minutes. The cell pellet was resuspended in 5 ml of media/flask used, 100 μl cell suspension was removed and added to 400 μl of trypan blue and cells were counted using a hemocytometer. The cell suspension was diluted to 1×10^6 cells/ml and 1 ml of suspension was added per well of a 24 well plate. The 24 well plates were incubated at 37° C., 5% CO2 overnight for use in the assay.
After an overnight incubation, the media was aspirated from all the wells. 100 μl of Lipopolysaccharide (LPS) was added at 100 ng/100 μl. CEME, CEMA or MBI 29 was added at the desired concentration/100 μl to specified wells. […] The plates were then incubated for six hours at 37° C., 5% CO2. The supernatant was then removed from the wells and stored overnight at 4° C. For those wells in which whole bacteria were added directly to the wells, the supernatant was centrifuged in 0.2 μm filter eppendorf tubes for 5 minutes.
The supernatants were then used in cell cytotoxic L929 assay. The samples were transferred to 96 well plates. 50 μl of TNF media was added to all the wells in all the plates except to those wells in the first row. 10 μl of murine TNF standard (20 ng/ml) and 90 μl of TNF media was added in duplicate to the plate and diluted 1:2 down the plate to the second to last row. Test samples (75 μl), comprising the supernatants from the RAW cell assays, were added to separate rows in duplicate and diluted 1:3 to the second to last rows.
TNF-sensitive L929 mouse fibroblast cells were grown by seeding 10^6 cells into a 162 cm^2 cell culture flask and left to grow for 1 week. L929 cells were removed from the flask with 10 mls of trypsin-EDTA/flask and incubated 3-5 minutes. Cell suspension was diluted and centrifuged for 6 minutes. The pellet was resuspended in 5 mls of fresh L929 media/flask and counted (same as RAW cells). Cell suspension was diluted to 10^6 cells/ml. 100 μl was used to inoculate each well of the 96 well plates with the supernatants. (L929 Growth Media was the same as RAW cell media except instead of FBS, 50 mls of 10% heat inactivated horse serum was utilized; TNF Assay Media was the same as RAW cell media except 4 μg/ml Actinomycin D was added.)
The plates were incubated at 37° C. at 5% CO2 for 2 days. The media was then aspirated and replaced with 100 μl of the dye MTT (0.5 mg/ml) in modified Eagle Medium without phenol red. The plates were then incubated at 37° C. at 5% CO2 for 3 hours. The dye was then removed and replaced with 100 μl of absolute ethanol. […]
The plates were read at 570 nm in a ELISA plate reader with 690 nm reference filter. […]
TNF levels were measured six hours after the addition of E. coli 0111:B4 or E. coli Bort LPS (FIGS. 5a, 5b, 5c and FIGS. 6a and 6c as labeled). […]
In order to determine how rapidly the cationic peptides reduced LPS-induced TNF production, E. coli 0111:B4 was added at time 0 to RAW macrophages. […] Levels of TNF were measured after 6 hours. […]

RAW cells = assay: RAW cell viability by Trypan blue exclusion; type: cell-based; conditions: up to 50 μg peptide
P. aeruginosa [2] = assay: Effect of formulation on bactericidal activity (killing, survivors over time); type: cell-based
Experimental: (§1) Effect of formulation on bactericidal activity and MIC was determined using the test solutions listed below.

S. typhimurium = S. typhimurium (C610)
Experimental: as §1
(§2) The media used in this experiment was Cation Adjusted Muller Hinton (CAMHB), and CAMHB +8 mM citrate.

E. facaelis = E. facaelis (C625)
Experimental: as §1, §2

P. aeruginosa [3] = conditions: P. aeruginosa (H103)
Experimental: as §1, §2

[4] = mice
Experimental: Immediately afterwards LPS (10 or 20 μg) in 100 μl is injected. The mice are observed at 24 and 48 hours after injections and survivors noted.

Experimental for A. calcoacet.: as §1, §2
Experimental for E. cloacae: as §1, §2
Experimental for E. coli: as §1, §2

In the case of `CC[C@H](C)[C@H](NC(=O)[C@H](CC(C)C)NC(=O)[C@H](C)NC(=O)[C@@H]1CCCN1C(=O)[C@H](CC(C)C)NC(=O)CNC(=O)[C@@H](NC(=O)[C@@H](NC(=O)[C@H](CC(C)C)NC(=O)[C@@H](NC(=O)[C@H](CCCCN)NC(=O)[C@H](CCCCN)NC(=O)[C@@H](NC(=O)[C@H](C)NC(=O)[C@@H](NC(=O)[C@@H](NC(=O)[C@H](CC(C)C)NC(=O)[C@H](CCCCN)NC(=O)[C@H](CCCCN)NC(=O)[C@@H](NC(=O)[C@H](Cc1ccccc1)NC(=O)[C@H](CO)NC(=O)[C@H](CCCCN)NC(=O)[C@H](Cc1c[nH]c2ccccc12)NC(=O)[C@@H](N)CCCCN)[C@@H](C)CC)[C@@H](C)O)[C@@H](C)O)C(C)C)C(C)C)[C@@H](C)O)[C@@H](C)O)C(=O)N[C@@H](CO)C(=O)O` [MBI 29], the “TNF induction in RAW cells preincubated with peptide and washed” value ([1]; 20 μg peptide 60 minutes, washed 3 times, then 10 ng or 100 ng LPS) is reported as 14,000-20,000 Units of TNF per ml, the “inhibition of TNF induction by LPS” value ([1]; E. coli 0111:B4 at time 0, peptide added at 0, 30 and 60 minutes, TNF after 6 hours) is reported as “inhibited TNF induction by LPS in a similar manner to polymyxin B” and the “reduction of LPS-induced TNF when added after LPS” value ([1]; added 60 minutes after the addition of LPS) is reported as “effective”. The “depression of TNF induction by aspirated medium containing peptide” value ([1]; 10 ng E. coli LPS) was 98.5%, the “depression of TNF induction by aspirated medium containing peptide” value ([1]; 100 ng E. coli LPS) was 75% and the RAW cell viability (RAW cells) was “no apparent decrease”.

For KWKSFIKKLTSAAKKVVTTAKPLISS [MBI 26], the “Survivors at Time (min.)” value (P. aeruginosa [2]; Citrate (0.129 M) +Ascorbic Acid (100 mM), MBI 26 10 MG/ML, 0 min) was 1.3 × 10^7, the “Survivors at Time (min.)” value (P. aeruginosa [2]; Citrate (0.129 M) +Ascorbic Acid (100 mM), MBI 26 10 MG/ML, 15 min) was 0 and the “Survivors at Time (min.)” value (P. aeruginosa [2]; Citrate (0.129 M) +Ascorbic Acid (100 mM), MBI 26 10 MG/ML, 30 min) was 0. For the same molecule, the “Survivors at Time (min.)” value (P. aeruginosa [2]; Citrate (0.129 M) +Ascorbic Acid (100 mM), MBI 26 10 MG/ML, 60 min) was 0, the “Survivors at Time (min.)” value (P. aeruginosa [2]; Citrate (0.129 M), MBI 26 10 MG/ML, 0 min) was 1.1 × 10^7 and the “Survivors at Time (min.)” value (P. aeruginosa [2]; Citrate (0.129 M), MBI 26 10 MG/ML, 15 min) was 0. The “Survivors at Time (min.)” value (P. aeruginosa [2]; Citrate (0.129 M), MBI 26 10 MG/ML, 30 min) was 0, the “Survivors at Time (min.)” value (P. aeruginosa [2]; Citrate (0.129 M), MBI 26 10 MG/ML, 60 min) was 0 and the “Survivors at Time (min.)” value (P. aeruginosa [2]; Citrate-Dextrose, MBI 26 10 MG/ML, 0 min) was 9 × 10^6. For the same molecule, the “Survivors at Time (min.)” value (P. aeruginosa [2]; Citrate-Dextrose, MBI 26 10 MG/ML, 15 min) was 20, the “Survivors at Time (min.)” value (P. aeruginosa [2]; Citrate-Dextrose, MBI 26 10 MG/ML, 30 min) was 0 and the “Survivors at Time (min.)” value (P. aeruginosa [2]; Citrate-Dextrose, MBI 26 10 MG/ML, 60 min) was 0. For the same molecule, the “Survivors at Time (min.)” value (P. aeruginosa [2]; Citrate-Phosphate Dextrose, MBI 26 10 MG/ML, 0 min) was 0, the “Survivors at Time (min.)” value (P. aeruginosa [2]; Citrate-Phosphate Dextrose, MBI 26 10 MG/ML, 30 min) was 0 and the “Survivors at Time (min.)” value (P. aeruginosa [2]; Citrate-Phosphate Dextrose, MBI 26 10 MG/ML, 60 min) was 0. The “Survivors at Time (min.)” value (P. aeruginosa [2]; Dextran, MBI 26 (20 μg), 0 min) was 1.9 × 10^7, the “Survivors at Time (min.)” value (P. aeruginosa [2]; Dextran, MBI 26 (20 μg), 15 min) was 1.2 × 10^6 and the “Survivors at Time (min.)” value (P. aeruginosa [2]; Dextran, MBI 26 (20 μg), 30 min) was 1 × 10^6. For the same molecule, the “Survivors at Time (min.)” value (P. aeruginosa [2]; Dextran, MBI 26 (20 μg), 60 min) was 8.5 × 10^5, the MIC (E. coli; E. coli (111:B4), CAMHB) was 8 µg/mL and the MIC (E. coli; E. coli (111:B4), CAMHB + Citrate (8 mM)) was 2 µg/mL. For the same molecule, the MIC (E. coli; E. coli (Bort), CAMHB) was 16 µg/mL, the MIC (E. coli; E. coli (Bort), CAMHB + Citrate (8 mM)) was 8 µg/mL and the MIC (E. coli; E. coli (UB 1005), CAMHB) was 4 µg/mL. It also gave an MIC (E. coli; E. coli (UB 1005), CAMHB + Citrate (8 mM)) of 2 µg/mL, an MIC (S. typhimurium; CAMHB) of 8 µg/mL and an MIC (S. typhimurium; CAMHB + Citrate (8 mM)) of 2 µg/mL. The MIC (E. facaelis; CAMHB) was 16 µg/mL, the MIC (E. facaelis; CAMHB + Citrate (8 mM)) was over 32 µg/mL and the MIC (A. calcoacet.; A. calcoacet (C403), CAMHB) was 1 µg/mL. For the same molecule, the MIC (A. calcoacet.; A. calcoacet (C403), CAMHB + Citrate (8 mM)) was 1 µg/mL, the MIC (A. calcoacet.; A. calcoacet. (C402), CAMHB) was 8 µg/mL and the MIC (A. calcoacet.; A. calcoacet. (C402), CAMHB + Citrate (8 mM)) was 4 µg/mL. It also gave an MIC (E. cloacae; E. cloacae (C601), CAMHB) of 8 µg/mL, an MIC (E. cloacae; E. cloacae (C601), CAMHB + Citrate (8 mM)) of 4 µg/mL and an MIC (E. cloacae; E. cloacae (C602), CAMHB) of 8 µg/mL. The MIC (E. cloacae; E. cloacae (C602), CAMHB + Citrate (8 mM)) was 4 µg/mL, the MIC (E. cloacae; E. cloacae (C603), CAMHB) was 4 µg/mL and the MIC (E. cloacae; E. cloacae (C603), CAMHB + Citrate (8 mM)) was 2 µg/mL. For the same molecule, the MIC (P. aeruginosa [3]; CAMHB) was 16 µg/mL, the MIC (P. aeruginosa [3]; CAMHB + Citrate (8 mM)) was 2 µg/mL and the non-toxic dose [4] was “up to 30.6 mg/kg”.
